{
  "source": "paper PMC9006931",
  "about": "“Altered Response Pattern following AZD5582 Treatment of SIV-Infected, ART-Suppressed Rhesus Macaque Infants” (Journal of Virology, 2022)",
  "test_system": "SIVmac251",
  "assay": "On-ART viremia (latency reversal) during AZD5582 treatment of SIV-infected, ART-suppressed infant RMs",
  "type": "in vivo, rhesus macaque (Macaca mulatta)",
  "text": "In this study, latency reversal was defined as a plasma SIV RNA level above 60 copies/mL during AZD5582 treatment in the presence of continued daily ART (or, “on-ART viremia”). […] On-ART viremia peaked at 771 copies/mL in RVf20 2 days post-dose 9. […] This low-level viremia contrasts, however, with the sustained suppression below 60 copies/mL in the 10 months before AZD5582 treatment in these 3 infants (Fig. 1B).\nTwelve infant, Indian RMs (Macaca mulatta), with the exclusion of Mamu B*08- and B*17-positive animals, were enrolled in this study. The animals were born at the Yerkes National Primate Research Center (YNPRC) to dams housed in indoor/outdoor group housing. The infants were removed from the dams when they were approximately 2 weeks old and transferred to an indoor nursery, where they were housed in social pairs with either full contact or protected contact for the duration of the study. The infants were fed in accordance with the YNPRC standard operating procedures (SOPs) for NHP feeding. After being removed from the dam, infants were fed center-approved milk replacer (Similac Advance, OptiGro Infant Formula with Iron and/or Similac Soy Isomil OptiGro Infant Formula with Iron; Abbott Nutrition, Columbus, OH) until 14 weeks of age. Infants were provided softened standard primate jumbo chow biscuits (Jumbo Monkey Diet 5037; Purina Mills, St. Louis, MO) and a portion of orange starting between 2 to 4 weeks of age. As animals aged additional enrichment of various fresh produce items were provided daily. The animals were orally infected at 4 to 5 weeks of age with two consecutive doses of 10^5 TCID50 (50% tissue culture infectious doses) of SIVmac251. Three infants required multiple weekly 2-dose challenges before successful infection (totaling up to three challenges). Eight historical controls that followed the same regimen were included in this study. Yerkes National Primate Research Center is accredited by both the U.S. Department of Agriculture (USDA) and by the Association for Assessment and Accreditation of Laboratory Animal Care (AAALAC). All animal procedures were performed in accordance with guidelines established by the Emory University Institutional Animal Care and Use Committee Guidelines and those set up by the NIH’s Guide for the Care and Use of Laboratory Animals, 8th edition.\nThe 12 RM infants were treated with a potent three-drug ART regimen initiated at 4 weeks postinfection. The preformulation ART cocktail contained two reverse transcriptase inhibitors, 5.1 mg/kg tenofovir disoproxil fumarate (TDF) and 40 mg/kg emtricitabine (FTC), plus 2.5 mg/kg of the integrase inhibitor dolutegravir (DTG). This ART cocktail was administered once daily at […] via the subcutaneous route.\nThe IAPi AZD5582 was reconstituted to 0.4 mg/mL in 10% Captisol within 1 week of administration as previously described ([17]). Monkeys assigned to the experimental intervention group received 10 administrations of 0.1 mg/kg AZD5582 by intravenous (i.v.) infusion with an inline filter for 30 minutes every week for 10 weeks.\nPlasma viral quantification was performed as described previously ([12]). The frozen cell pellet was lysed with proteinase K (100 μg/mL in 10 mM Tris-HCl pH 8) for 1h at 56°C. Quantification of SIVmac gag DNA was performed by quantitative PCR (qPCR) using the 5′ nuclease (TaqMan) assay with an ABI7500 system (PerkinElmer Life Sciences). The sequence of the forward primer for SIVmac gag was 5′-[…]-3′, the reverse primer sequence was 5′-[…]-3′, and the probe sequence was 5′-6-carboxyfluorescein (FAM)-[…]-6-carboxytetramethylrhodamine (TAMRA)-3′. 7.5 μL of cell lysate were mixed in a 50 μL reaction mixture containing 1× Platinum Buffer, 3.5 mM MgCl2, 0.2 mM dNTP, primers 200 nM, probe 150 nM, and 2U Platinum Taq. For cell number quantification, quantitative PCR was performed simultaneously for monkey albumin gene copy number. […]",
  "key": {"[1]": {"details": "10 weekly doses 0.1 mg/kg i.v., LOD 60 copies/mL"}},
  "data": [
    {"smiles": "CN[C@@H](C)C(=O)N[C@H](C(=O)N1CCC[C@H]1C(=O)N[C@H]1c2ccccc2C[C@H]1OCC#CC#CCO[C@@H]1Cc2ccccc2[C@@H]1NC(=O)[C@@H]1CCCN1C(=O)[C@@H](NC(=O)[C@H](C)NC)C1CCCCC1)C1CCCCC1", "note": "[AZD5582]", "values": [
      {"measurement": "First instance of latency reversal, time after the 4th dose", "result": 48, "unit": "h"},
      {"measurement": "Start of on-ART viremia, time post-dose 4", "result": 3, "unit": "days"},
      {"measurement": "SIV reactivation, per animal (RMs with on-ART viremia above LOD)", "setting": "[1]", "result": "5/8"},
      {"measurement": "SIV reactivation, per animal (percent of RMs with on-ART viremia)", "setting": "[1]", "result": 63, "unit": "%"},
      {"measurement": "SIV reactivation, events >60 copies/ml (percent of measurements)", "setting": "135 measurements in the 5 RMs with on-ART viremia", "result": 6, "unit": "%"},
      {"measurement": "Peak on-ART viremia", "setting": "RVf20, 2 days post-dose 9", "result": 771, "unit": "copies/mL"},
      {"measurement": "SIV reactivation, events >60 copies/ml (measurements above LOD)", "setting": "of 135 viral load measurements in the 5 RMs with on-ART viremia", "result": 8}
    ]}
  ]
}
